# Assay results taken from article PMC9814900 (Communications Chemistry, 2022).
# Numbered stars: 1 amine (or outer) side, 2 acyl side, 3 side chain; on linkers, the order of the positions; unused ones are H or OH. Bridge positions count the residues as written; N and C are the ends. Peptide text beside a SMILES is read from it. C6F4(1,4-diyl) = Fc1c(F)c([*:2])c(F)c(F)c1[*:1]
# Target: T1, SUMO-25-109MDM2 (Homo sapiens, UniProt Q00987)
# T1 construct: the ^25-109MDM2 gene was purchased from Addgene; made in house; host or cells: E. coli Rosetta (DE3) pLysS
# Experiment: In-solution competition assay by biolayer interferometry (BLI)
# Type: binding
# Conditions: not given
row,Molecule,Kd [nM]
1,"CC(C)C[C@H](NC(=O)[C@@H]1CSc2c(F)c(F)c(c(F)c2F)SC[C@H](NC(=O)[C@H](C)NC(=O)[C@H](Cc2ccccc2)NC(=O)[C@H](CO)NC(=O)[C@@H](N)[C@@H](C)O)C(=O)N[C@@H](Cc2ccc(O)cc2)C(=O)N[C@@H](Cc2c[nH]c3ccccc23)C(=O)N[C@@H](CC(N)=O)C(=O)N1)C(=O)N[C@@H](CO)C(=O)N1CCC[C@H]1C(N)=O [Peptide 13] (H-TSFACYWNCLSP-NH2; linker 5-9 via C6F4(1,4-diyl))",36 ± 8.5
2,CC(C)C[C@H](NC(=O)[C@H](C)NC(=O)[C@H](Cc1c[nH]c2ccccc12)NC(=O)[C@H](Cc1ccc(O)cc1)NC(=O)[C@H](CCC(=O)O)NC(=O)[C@H](C)NC(=O)[C@H](Cc1ccccc1)NC(=O)[C@H](CO)NC(=O)[C@@H](N)[C@@H](C)O)C(=O)N[C@@H](CC(C)C)C(=O)N[C@@H](CO)C(=O)N[C@@H](C)C(N)=O [Peptide 8] (H-TSFAEYWALLSA-NH2),0.7 ± 0.5

# Same assay, conditions: Figs 3-5; peptide pre-incubated 30 min with ~50 or ~100 nM SUMO-25-109MDM2 in PBS, 0.05% Tween-20, 1 mg/mL BSA; sensor loaded with Biotin-PEG4-p53(15-29); 30 °C; response after 2 min; read-out: KD, competition assay using BLI
row,Kd [nM],Molecule
1,1440 ± 390,CC(C)C[C@H](NC(=O)[C@H](CC(N)=O)NC(=O)[C@H](Cc1c[nH]c2ccccc12)NC(=O)[C@H](C)NC(=O)[C@H](CCC(=O)O)NC(=O)[C@H](C)NC(=O)[C@H](Cc1ccccc1)NC(=O)[C@H](CO)NC(=O)[C@@H](N)[C@@H](C)O)C(=O)N[C@@H](C)C(=O)N[C@@H](CO)C(=O)N1CCC[C@H]1C(N)=O [Peptide 6] (H-TSFAEAWNLASP-NH2)
2,449 ± 57,"CC(C)C[C@H](NC(=O)[C@H](CC(N)=O)NC(=O)[C@H](Cc1c[nH]c2ccccc12)NC(=O)[C@@H]1CSc2c(F)c(F)c(c(F)c2F)SC[C@H](NC(=O)[C@@H](N)[C@@H](C)O)C(=O)N[C@@H](Cc2ccccc2)C(=O)N[C@@H](C)C(=O)N[C@@H](CCC(=O)O)C(=O)N1)C(=O)N[C@@H](CC(C)C)C(=O)N[C@@H](CO)C(=O)N1CCC[C@H]1C(N)=O [Peptide 10] (H-TCFAECWNLLSP-NH2; linker 2-6 via C6F4(1,4-diyl))"
3,1620 ± 263,"CC(C)C[C@H](NC(=O)[C@H](CC(N)=O)NC(=O)[C@@H]1CSc2c(F)c(F)c(c(F)c2F)SC[C@H](NC(=O)[C@H](CO)NC(=O)[C@@H](N)[C@@H](C)O)C(=O)N[C@@H](C)C(=O)N[C@@H](CCC(=O)O)C(=O)N[C@@H](Cc2ccc(O)cc2)C(=O)N1)C(=O)N[C@@H](CC(C)C)C(=O)N[C@@H](CO)C(=O)N1CCC[C@H]1C(N)=O [Peptide 11] (H-TSCAEYCNLLSP-NH2; linker 3-7 via C6F4(1,4-diyl))"
4,0.7 ± 0.5,"CC(C)C[C@@H]1NC(=O)[C@H](C)NC(=O)[C@@H](NC(=O)[C@H](Cc2c[nH]c3ccccc23)NC(=O)[C@H](Cc2ccc(O)cc2)NC(=O)[C@H](CCC(=O)O)NC(=O)[C@H](C)NC(=O)[C@H](Cc2ccccc2)NC(=O)[C@H](CO)NC(=O)[C@@H](N)[C@@H](C)O)CSc2c(F)c(F)c(c(F)c2F)SC[C@@H](C(N)=O)NC(=O)[C@H](CO)NC1=O [Peptide 40] (H-TSFAEYWCALSC-NH2; linker 8-12 via C6F4(1,4-diyl))"

# Same assay, conditions: supplementary binding validation; N=1; ~250 nM SUMO-25-109MDM2; read-out: KD, competition BLI assay
row,Kd [nM],Molecule
1,925 ± 70,"CC(C)C[C@H](NC(=O)[C@H](CC(N)=O)NC(=O)[C@H](Cc1c[nH]c2ccccc12)NC(=O)[C@H](Cc1ccc(O)cc1)NC(=O)[C@@H]1CSc2c(F)c(F)c(c(F)c2F)SC[C@H](N)C(=O)N[C@@H](CO)C(=O)N[C@@H](Cc2ccccc2)C(=O)N[C@@H](C)C(=O)N1)C(=O)N[C@@H](CC(C)C)C(=O)N[C@@H](CO)C(=O)N1CCC[C@H]1C(N)=O [Peptide 9] (H-CSFACYWNLLSP-NH2; linker 1-5 via C6F4(1,4-diyl))"

# Same assay, conditions: supplementary binding validation; averaged over three measurements; ~30-100 nM SUMO-25-109MDM2 as given per peptide; read-out: Averaged KD, competition BLI assay
row,Molecule,Kd [nM]
1,CC(C)C[C@H](NC(=O)[C@H](CC(N)=O)NC(=O)[C@H](Cc1c[nH]c2ccccc12)NC(=O)[C@H](C)NC(=O)[C@H](CCC(=O)O)NC(=O)[C@H](C)NC(=O)[C@H](Cc1ccccc1)NC(=O)[C@H](CO)NC(=O)[C@@H](N)[C@@H](C)O)C(=O)N[C@@H](C)C(=O)N[C@@H](CO)C(=O)N1CCC[C@H]1C(N)=O [Peptide 6] (H-TSFAEAWNLASP-NH2),2140 ± 390
2,CC(C)C[C@H](NC(=O)[C@H](CC(C)C)NC(=O)[C@H](CC(N)=O)NC(=O)[C@H](C)NC(=O)[C@H](Cc1ccc(O)cc1)NC(=O)[C@H](CCC(=O)O)NC(=O)[C@H](C)NC(=O)[C@H](Cc1ccccc1)NC(=O)[C@H](CO)NC(=O)[C@@H](N)[C@@H](C)O)C(=O)N[C@@H](C)C(=O)N1CCC[C@H]1C(N)=O [Peptide 7] (H-TSFAEYANLLAP-NH2),1220 ± 231
3,CC(C)C[C@H](NC(=O)[C@H](CC(N)=O)NC(=O)[C@H](C)NC(=O)[C@H](Cc1ccc(O)cc1)NC(=O)[C@H](CCC(=O)O)NC(=O)[C@H](C)NC(=O)[C@H](C)NC(=O)[C@H](CO)NC(=O)[C@@H](N)[C@@H](C)O)C(=O)N[C@@H](CC(C)C)C(=O)N[C@@H](CO)C(=O)N1CCC[C@H]1C(N)=O [Peptide 3] (H-TSAAEYANLLSP-NH2),4910 ± 713

# Results, then the molecule that gave them:
row,Kd [nM],Molecule
1,316 ± 27,"CC(C)C[C@H](NC(=O)[C@H](C)NC(=O)[C@@H]1CSc2c(F)c(F)c(c(F)c2F)SC[C@H](NC(=O)[C@H](Cc2ccccc2)NC(=O)[C@H](C)NC(=O)[C@H](C)N)C(=O)N[C@@H](CCC(=O)O)C(=O)N[C@@H](Cc2ccc(O)cc2)C(=O)N[C@@H](Cc2c[nH]c3ccccc23)C(=O)N1)C(=O)N[C@@H](CO)C(=O)N1CCC[C@H]1C(N)=O [Peptide 35] (H-AAFCEYWCALSP-NH2; linker 4-8 via C6F4(1,4-diyl))"
2,10 ± 2.3,CC(C)C[C@H](NC(=O)[C@H](CC(N)=O)NC(=O)[C@H](Cc1c[nH]c2ccccc12)NC(=O)[C@H](Cc1ccc(O)cc1)NC(=O)[C@H](C)NC(=O)[C@H](C)NC(=O)[C@H](Cc1ccccc1)NC(=O)[C@H](CO)NC(=O)[C@H](C)N)C(=O)N[C@@H](CC(C)C)C(=O)N[C@@H](CO)C(=O)N1CCC[C@H]1C(N)=O [Peptide 1] (H-ASFAAYWNLLSP-NH2)
3,3 ± 1.3,"CC(C)C[C@@H]1NC(=O)[C@H](CC(C)C)NC(=O)[C@@H](NC(=O)[C@H](Cc2c[nH]c3ccccc23)NC(=O)[C@H](Cc2ccc(O)cc2)NC(=O)[C@H](CCC(=O)O)NC(=O)[C@H](C)NC(=O)[C@H](Cc2ccccc2)NC(=O)[C@H](CO)NC(=O)[C@@H](N)[C@@H](C)O)CSc2c(F)c(F)c(c(F)c2F)SC[C@@H](C(N)=O)NC(=O)[C@H](CO)NC1=O [Peptide 16] (H-TSFAEYWCLLSC-NH2; linker 8-12 via C6F4(1,4-diyl))"
4,26 ± 5,"CC(C)C[C@H](NC(=O)[C@@H]1CSc2c(F)c(F)c(c(F)c2F)SC[C@H](NC(=O)[C@H](Cc2ccccc2)NC(=O)[C@H](CO)NC(=O)[C@@H](N)[C@@H](C)O)C(=O)N[C@@H](CCC(=O)O)C(=O)N[C@@H](Cc2ccc(O)cc2)C(=O)N[C@@H](Cc2c[nH]c3ccccc23)C(=O)N1)C(=O)N[C@@H](CC(C)C)C(=O)N[C@@H](CO)C(=O)N1CCC[C@H]1C(N)=O [Peptide 12] (H-TSFCEYWCLLSP-NH2; linker 4-8 via C6F4(1,4-diyl))"
5,1.6 ± 1.3,"CC(C)C[C@H](NC(=O)[C@@H]1CSc2c(F)c(F)c(c(F)c2F)SC[C@H](NC(=O)[C@H](C)NC(=O)[C@H](Cc2ccccc2)NC(=O)[C@H](CO)NC(=O)[C@@H](N)[C@@H](C)O)C(=O)N[C@@H](Cc2ccc(O)cc2)C(=O)N[C@@H](Cc2c[nH]c3ccccc23)C(=O)N[C@@H](C)C(=O)N1)C(=O)N[C@@H](CO)C(=O)N[C@@H](C)C(N)=O [Peptide 37] (H-TSFACYWACLSA-NH2; linker 5-9 via C6F4(1,4-diyl))"
6,2020 ± 514,"CC(C)C[C@@H]1NC(=O)[C@H](CC(N)=O)NC(=O)[C@H](Cc2c[nH]c3ccccc23)NC(=O)[C@@H](NC(=O)[C@H](CCC(=O)O)NC(=O)[C@H](C)NC(=O)[C@H](Cc2ccccc2)NC(=O)[C@H](CO)NC(=O)[C@@H](N)[C@@H](C)O)CSc2c(F)c(F)c(c(F)c2F)SC[C@@H](C(=O)N[C@@H](CO)C(=O)N2CCC[C@H]2C(N)=O)NC1=O [Peptide 14] (H-TSFAECWNLCSP-NH2; linker 6-10 via C6F4(1,4-diyl))"
7,1150 ± 209,"CC(C)C[C@@H]1NC(=O)[C@H](CC(N)=O)NC(=O)[C@@H](NC(=O)[C@H](Cc2ccc(O)cc2)NC(=O)[C@H](CCC(=O)O)NC(=O)[C@H](C)NC(=O)[C@H](Cc2ccccc2)NC(=O)[C@H](CO)NC(=O)[C@@H](N)[C@@H](C)O)CSc2c(F)c(F)c(c(F)c2F)SC[C@@H](C(=O)N2CCC[C@H]2C(N)=O)NC(=O)[C@H](CC(C)C)NC1=O [Peptide 15] (H-TSFAEYCNLLCP-NH2; linker 7-11 via C6F4(1,4-diyl))"
8,431 ± 46,"CC(C)C[C@H](NC(=O)[C@H](CC(N)=O)NC(=O)[C@H](Cc1c[nH]c2ccccc12)NC(=O)[C@@H]1CSc2c(F)c(F)c(c(F)c2F)SC[C@H](NC(=O)[C@@H](N)[C@@H](C)O)C(=O)N[C@@H](Cc2ccccc2)C(=O)N[C@@H](C)C(=O)N[C@@H](CCC(=O)O)C(=O)N1)C(=O)N[C@@H](CC(C)C)C(=O)N[C@@H](CO)C(=O)N1CCC[C@H]1C(N)=O [Peptide 10] (H-TCFAECWNLLSP-NH2; linker 2-6 via C6F4(1,4-diyl))"
9,1590 ± 315,"CC(C)C[C@H](NC(=O)[C@H](CC(N)=O)NC(=O)[C@@H]1CSc2c(F)c(F)c(c(F)c2F)SC[C@H](NC(=O)[C@H](CO)NC(=O)[C@@H](N)[C@@H](C)O)C(=O)N[C@@H](C)C(=O)N[C@@H](CCC(=O)O)C(=O)N[C@@H](Cc2ccc(O)cc2)C(=O)N1)C(=O)N[C@@H](CC(C)C)C(=O)N[C@@H](CO)C(=O)N1CCC[C@H]1C(N)=O [Peptide 11] (H-TSCAEYCNLLSP-NH2; linker 3-7 via C6F4(1,4-diyl))"
10,628 ± 89,CC(C)C[C@H](NC(=O)[C@H](CC(N)=O)NC(=O)[C@H](Cc1c[nH]c2ccccc12)NC(=O)[C@H](C)NC(=O)[C@H](CCC(=O)O)NC(=O)[C@H](C)NC(=O)[C@H](Cc1ccccc1)NC(=O)[C@H](C)NC(=O)[C@@H](N)[C@@H](C)O)C(=O)N[C@@H](CC(C)C)C(=O)N[C@@H](CO)C(=O)N1CCC[C@H]1C(N)=O [Peptide 2] (H-TAFAEAWNLLSP-NH2)
11,0.2 ± 0.1,"CC(C)C[C@@H]1NC(=O)[C@H](C)NC(=O)[C@@H](NC(=O)[C@H](Cc2c[nH]c3ccccc23)NC(=O)[C@H](Cc2ccc(O)cc2)NC(=O)[C@H](CCC(=O)O)NC(=O)[C@H](C)NC(=O)[C@H](Cc2ccccc2)NC(=O)[C@H](CO)NC(=O)[C@@H](N)[C@@H](C)O)CSc2c(F)c(F)c(c(F)c2F)SC[C@@H](C(N)=O)NC(=O)[C@H](CO)NC1=O [Peptide 40] (H-TSFAEYWCALSC-NH2; linker 8-12 via C6F4(1,4-diyl))"
12,30 ± 3.8,CC(C)C[C@H](NC(=O)[C@H](C)NC(=O)[C@H](CC(N)=O)NC(=O)[C@H](Cc1c[nH]c2ccccc12)NC(=O)[C@H](Cc1ccc(O)cc1)NC(=O)[C@H](C)NC(=O)[C@H](C)NC(=O)[C@H](Cc1ccccc1)NC(=O)[C@H](CO)NC(=O)[C@@H](N)[C@@H](C)O)C(=O)N[C@@H](CO)C(=O)N1CCC[C@H]1C(N)=O [Peptide 5] (H-TSFAAYWNALSP-NH2)

# Target: MDM2
# Experiment: not given
# Conditions: KD of single alanine mutant relative to PMI; ref 3 of supplement (Li et al., J. Mol. Biol. 2010); cited from earlier work
row,Molecule,KD ratio
1,TSFAEYWNLLAP [Peptide S11A],1.2
2,TSFAAYWNLLSP [Peptide E5A],6.7
3,TSFAEYWNLLSA [Peptide P12A],0.7
4,TSFAEAWNLLSP [Peptide Y6A],191
5,TAFAEYWNLLSP [Peptide S2A],8.4
6,TSFAEYWNLASP [Peptide L10A],227
7,ASFAEYWNLLSP [Peptide T1A],1.9
8,TSAAEYWNLLSP [Peptide F3A],11750
9,TSFAEYWNALSP [Peptide L9A],0.8
10,TSFAEYANLLSP [Peptide W7A],50720
